Reference: PMC6630796, “Spiroindolone Analogues as Potential Hypoglycemic with Dual Inhibitory Activity on α-Amylase and α-Glucosidase” (Molecules, 2019)

Assays:
[1] = target: T1, α-Glucosidase type 1 from baker’s yeast (Saccharomyces cerevisiae, UniProt P53341); test: α-Glucosidase inhibition assay (p-nitrophenyl α-D-glucopyranoside, 405 nm); assay type: biochemical; conditions: for α-Glucosidase Selectivity: IC50 (α-amylase)/IC50 (α-glucosidase)
T1 construct: purchased Sigma-Aldrich G5003
Method: Sodium phosphate buffer (0.1 M) was adjusted by 0.1 N HCl to pH 7.0 with a pH meter (Thermo Fisher Scientific Inc., Waltham, MA, USA). p-Nitrophenyl α-D-glucopyranoside (10 mM) and α-glucosidase solutions (1 U/mL) were solubilized in 0.1 M sodium phosphate buffer (pH 7.0). All the reagents were manufactured shortly before use and warmed to 37 °C in a water bath. Sodium phosphate buffer (0.1 M, 158 μL per well) was added to a 96-well plate. α-Glucosidase (20 μL) and 2 μL of sample were added to 20 μL of p-nitrophenyl α-D-glucopyranoside. In the 200-μL final reaction volume (0.02 U/well, 0.1 U/mL) the substrate concentration was adjusted to […]. The background signal due to the sample color was measured at 405 nm with the PerkinElmer Wallac Victor3 spectrophotometer (PerkinElmer, Waltham, MA, USA) prior to adding the enzyme. Immediately following α-glucosidase addition, absorbance was measured at 405 nm 8 times at 1 min intervals.
(§1) The inhibitory concentration 50% (IC50) values were determined from the plots of percent inhibition versus log inhibitor concentration and calculated by logarithmic regression analysis from the mean inhibitory values.

[2] = target: T2, α-amylase from Aspergillus oryzae (Aspergillus oryzae, UniProt P0C1B3); test: biochemical; conditions: for α-Amylase Selectivity: IC50 (α-glucosidase)/IC50 (α-amylase)
T2 construct: purchased Sigma Aldrich
Method: Briefly, 250 μL (0.4 mg/mL) of sample was preincubated with 250 μL of α-amylase solution for 10 min at 25 °C in one set of tubes. In another set of tubes α-amylase was preincubated with 250 μL of phosphate buffer (pH 6.9). 250 μL of starch solution at increasing concentrations (0.2–1% (w/v)) was added to both sets of reaction mixtures to start the reaction. The mixture was then incubated for 10 min at 25 °C and then boiled for 15 min after the addition of 250 μL of DNS to stop the reaction. The amount of reducing sugars released was determined spectrophotometrically using a maltose standard curve and converted to reaction velocities.
as §1

T1 sequence (P53341 whole entry): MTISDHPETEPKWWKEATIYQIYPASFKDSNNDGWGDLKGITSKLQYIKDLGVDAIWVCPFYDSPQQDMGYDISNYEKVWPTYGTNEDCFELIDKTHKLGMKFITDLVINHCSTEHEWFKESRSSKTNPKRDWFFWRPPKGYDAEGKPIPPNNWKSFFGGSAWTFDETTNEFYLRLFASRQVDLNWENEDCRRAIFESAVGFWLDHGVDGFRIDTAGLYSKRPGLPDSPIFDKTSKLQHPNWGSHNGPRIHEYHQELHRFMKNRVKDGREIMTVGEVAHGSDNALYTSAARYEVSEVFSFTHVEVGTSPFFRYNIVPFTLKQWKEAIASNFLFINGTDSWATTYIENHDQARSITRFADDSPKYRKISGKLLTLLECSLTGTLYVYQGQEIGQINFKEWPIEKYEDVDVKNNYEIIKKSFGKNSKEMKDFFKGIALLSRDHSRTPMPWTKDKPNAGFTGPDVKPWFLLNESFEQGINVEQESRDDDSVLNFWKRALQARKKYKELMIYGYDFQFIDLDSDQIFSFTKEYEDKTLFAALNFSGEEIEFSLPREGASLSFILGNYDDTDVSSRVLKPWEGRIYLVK

## O=C(c1ccccc1)C1C(c2cc3ccccc3o2)C2CSCN2[C@@]12C(=O)Nc1ccc(Cl)cc12 (stereo partly drawn) [Compound 5a, (3S)-7′-(Benzofuran-2-yl)-6′-benzoyl-5-chloro-1′,6′,7′,7a′-tetrahydro-3′H-spiro[indoline-3,5′-pyrrolo[1,2-c]thiazol]-2-one]
[1]
  IC50: 465.12 ± 0.12 µM
  α-Glucosidase Selectivity: 1.49
[2]
  IC50: 693.22 ± 0.1 µM
  α-Amylase Selectivity: 0.67
other
  melting point: 132 to 133 °C

## O=C(c1ccccc1)C1C(c2cc3ccccc3o2)C2C3CCCCC3CN2[C@@]12C(=O)Nc1ccc(Cl)cc12 (stereo partly drawn) [Compound 5b, (3S)-1′-(Benzofuran-2-yl)-2′-benzoyl-5-chloro-1′,2′,5′,5a′,6′,7′,8′,9′,9a′,9b′-decahydrospiro[indoline-3,3′-pyrrolo[2,1-a]isoindol]-2-one]
other
  melting point: 120 to 122 °C

## O=C(c1ccc(F)cc1)C1C(c2cc3ccccc3o2)C2CSCN2[C@@]12C(=O)Nc1ccc(Cl)cc12 (stereo partly drawn) [Compound 5c, (3S)-7′-(Benzofuran-2-yl)-5-chloro-6′-(4-fluorobenzoyl)-1′,6′,7′,7a′-tetrahydro-3′H-spiro[indoline-3,5′-pyrrolo[1,2-c]thiazol]-2-one]
[1]
  IC50: 585.11 ± 0.02 µM
  α-Glucosidase Selectivity: 1.22
[2]
  IC50: 718 ± 0.27 µM
  α-Amylase Selectivity: 0.81
other
  melting point: 110 to 112 °C

## O=C(c1ccc(F)cc1)C1C(c2cc3ccccc3o2)C2C3CCCCC3CN2[C@@]12C(=O)Nc1ccc(Cl)cc12 (stereo partly drawn) [Compound 5d, (3S)-1′-(benzofuran-2-yl)-5-chloro-2′-(4-fluorobenzoyl)-1′,2′,5′,5a′,6′,7′,8′,9′,9a′,9b′-decahydrospiro-[indoline-3,3′-pyrrolo[2,1-a]isoindol]-2-one]
other
  melting point: 125 to 127 °C

## O=C(c1ccc(F)cc1)C1C(c2cc3ccccc3o2)C2C3CCCCC3CN2[C@@]12C(=O)Nc1ccc(Br)cc12 (stereo partly drawn) [Compound 5e, (3S)-1′-(Benzofuran-2-yl)-5-bromo-2′-(4-fluorobenzoyl)-1′,2′,5′,5a′,6′,7′,8′,9′,9a′,9b′-decahydrospiro-[indoline-3,3′-pyrrolo[2,1-a]isoindol]-2-one]
other
  melting point: 125 to 127 °C

## O=C(c1ccc(Br)cc1)C1C(c2cc3ccccc3o2)C2C3CCCCC3CN2[C@@]12C(=O)Nc1ccc(Cl)cc12 (stereo partly drawn) [Compound 5f, (3S)-1′-(Benzofuran-2-yl)-2′-(4-bromobenzoyl)-5-chloro-1′,2′,5′,5a′,6′,7′,8′,9′,9a′,9b′-decahydrospiro-[indoline-3,3′-pyrrolo[2,1-a]isoindol]-2-one]
other
  melting point: 120 to 121 °C

## O=C(c1ccc(Br)cc1)C1C(c2cc3ccccc3o2)C2CSCN2[C@@]12C(=O)Nc1ccc(Br)cc12 (stereo partly drawn) [Compound 5h, (3S)-7′-(Benzofuran-2-yl)-5-bromo-6′-(4-bromobenzoyl)-1′,6′,7′,7a′-tetrahydro-3′H-spiro[indoline-3,5′-pyrrolo[1,2-c]thiazol]-2-one]
[1]
  IC50: 494.1 ± 0.04 µM
  α-Glucosidase Selectivity: 1.19
[2]
  IC50: 589.04 ± 0.25 µM
  α-Amylase Selectivity: 0.83
other
  melting point: 118 to 120 °C

## O=C(c1ccc(Br)cc1)C1C(c2cc3ccccc3o2)C2CSCN2[C@@]12C(=O)Nc1ccc(Cl)cc12 (stereo partly drawn) [Compound 5i, (3S)-7′-(Benzofuran-2-yl)-6′-(4-bromobenzoyl)-5-chloro-1′,6′,7′,7a′-tetrahydro-3′H-spiro[indoline-3,5′-pyrrolo[1,2-c]thiazol]-2-one]
[1]
  IC50: 684.12 ± 0.35 µM
  α-Glucosidase Selectivity: 1.13
[2]
  IC50: 779.08 ± 0.51 µM
  α-Amylase Selectivity: 0.87
other
  melting point: 144 to 145 °C

## O=C(c1ccc(C(F)(F)F)cc1)C1C(c2cc3ccccc3o2)C2CSCN2[C@@]12C(=O)Nc1ccc(Cl)cc12 (stereo partly drawn) [Compound 5l, (3S)-7′-(Benzofuran-2-yl)-5-chloro-6′-(4-(trifluoromethyl)benzoyl)-1′,6′,7′,7a′-tetrahydro-3′H-spiro-[indoline-3,5′-pyrrolo[1,2-c]thiazol]-2-one]
[1]
  IC50: 414.1 ± 0.52 µM
[2]
  IC50: 558.07 ± 0.18 µM
  α-Amylase Selectivity: 0.74
other
  melting point: 110 to 112 °C

## O=C(c1ccc(F)cc1)C1C(c2cc3ccccc3o2)C2C3CCCCC3CN2[C@@]12C(=O)Nc1ccccc12 (stereo partly drawn) [Compound 5m, (3S)-1′-(Benzofuran-2-yl)-2′-(4-fluorobenzoyl)-1′,2′,5′,5a′,6′,7′,8′,9′,9a′,9b′-decahydrospiro[indoline-3,3′-pyrrolo[2,1-a]isoindol]-2-one]
other
  melting point: 137 to 138 °C

## O=C(c1ccc(Br)cc1)C1C(c2cc3ccccc3o2)C2C3CCCCC3CN2[C@@]12C(=O)Nc1ccccc12 (stereo partly drawn) [Compound 5n, (3S)-1′-(Benzofuran-2-yl)-2′-(4-bromobenzoyl)-1′,2′,5′,5a′,6′,7′,8′,9′,9a′,9b′-decahydrospiro[indoline-3,3′-pyrrolo[2,1-a]isoindol]-2-one]
other
  melting point: 118 to 120 °C

## O=C(c1ccc(Cl)cc1)C1C(c2cc3ccccc3o2)C2C3CCCCC3CN2[C@@]12C(=O)Nc1ccc(Cl)cc12 (stereo partly drawn) [Compound 5o, (3S)-1′-(Benzofuran-2-yl)-5-chloro-2′-(4-chlorobenzoyl)-1′,2′,5′,5a′,6′,7′,8′,9′,9a′,9b′-decahydrospiro-[indoline-3,3′-pyrrolo[2,1-a]isoindol]-2-one]
other
  melting point: 125 to 126 °C

## O=C(c1ccc(Cl)cc1)C1C(c2cc3ccccc3o2)C2CSCN2[C@@]12C(=O)Nc1ccc(Cl)cc12 (stereo partly drawn) [Compound 5p, (3S)-7′-(Benzofuran-2-yl)-5-chloro-6′-(4-chlorobenzoyl)-1′,6′,7′,7a′-tetrahydro-3′H-spiro[indoline-3,5′-pyrrolo[1,2-c]thiazol]-2-one]
[1]
  IC50: 392.1 ± 1.07 µM
  α-Glucosidase Selectivity: 1.24
[2]
  IC50: 488 ± 1.11 µM
  α-Amylase Selectivity: 0.80
other
  melting point: 105 to 106 °C
